Laboratory results from patent publication US11919857B2, “Phthalide derivative, preparation method and use thereof” (LANZHOU INSTITUTE OF CHEMICAL PHYSICS, CHINESE ACADEMY OF …, priority 2018, dated 2024).

How the values were obtained:
[1] = In vivo pharmacokinetics in rats (gavage and intravenous injection), plasma HPLC-DAD; set-up: species or system Wistar rats; T1/2ka: unit not given here; conditions: rat
Method: Certain amounts of N-cyclopropyl-3-n-butyl-3-hydroxy-ligusticum lactam and N-cyclopropyl-3-n-butyl-3-hydroxy-phthalide lactam standards were accurately weighed respectively, and dissolved and diluted in the methanol to obtain 2.0 mg/mL of standard stock solutions. Certain standard stock solutions were accurately weighed and mixed respectively, and diluted with methanol to […], 0.7813, 1.5625, 3.1250, 6.2500, 12.500, 25.0000, 50.0000, and 500.0 μg/mL. 20 uL of each sample was analyzed by HPLC system, to sequentially determine N-cyclopropyl-3-n-butyl-3-hydroxy-ligusticum lactam and N-cyclopropyl-3-n-butyl-3-hydroxy-phthalide lactam. The peak area (A) was linearly regressed with the concentration C (g/mL), to obtain the regression equation and linear range, detection limit (LOD), and quantification limit (LOQ).
1.2 Preparation method for test sample: The compound prepared according to Example 7 (the content of N-cyclopropyl-3-n-butyl-3-hydroxy-ligusticum lactam is 92.5%; and the content of the compound N-cyclopropyl-3-n-butyl-3-hydroxy-phthalide lactam is 7.5%) was prepared into the raw stock solution at a concentration of 15 mg/mL by 10% ethanol, 20% Tween 80, and 70% physiological saline. The rats were dosed based on the body weights, with a dosage of 90 mg/Kg by oral administration (by gavage) and a dosage of 40 mg/Kg by intravenous injection.
1.3 Pretreatment method for plasma sample: 0.5 mL of rat whole blood was taken and placed in a 1.5 mL centrifuge tube with 20 uL sodium heparin therein, and centrifuged at a high rotation rate of 4×10^3 r·min^−1 for 5 min. 200 μL of plasma was taken and 800 μL of dichloromethane was added. The mixture was vortexed and centrifuged for 10 min at a rotation rate of […]. The lower layer solution was separate and blown to dryness with nitrogen gas at room temperature, and then reconstituted with 300 μL of methanol. The solution was eluted, filtered, and dried to dryness with nitrogen. After adding 30 μL of methanol, the solution was centrifuged, and 20 μL of the supernatant was used to determine the peak areas by HPLC.
1.4 Determination of pharmacokinetic parameters of phthalide derivatives in rats. Twelve male Wistar rats were randomly divided into two groups, wherein 6 rats were administrated with 40 mg/kg of phthalide derivative (the intravenous injection group (i.v.)). At 0 (pre-dose), 0.167, 0.333, 0.5, 1, 2, 3, 4, and 6 hours after administration, about 500 μL of blood was collected from the Angulus oculis, respectively, and 200 μL of plasma was frozen after anticoagulation treatment and centrifugation. 6 rats in the gavage administration (po) group were administrated by 90 mg/kg of phthalide derivative. At 0 (pre-dose), 0.5, 1, 2, 3, 4, 6, 8, 10, and 12 h after administration, about 500 μL of blood was collected from the Angulus oculis, respectively, and 200 μL of plasma was frozen after anticoagulation treatment and centrifugation. The plasma samples were warmed to the room temperature before pretreatment, and 20 μL of the sample solutions were analyzed by liquid chromatography. The blood drug concentration at each time point was calculated according to the standard curve. The dose-time curve was fitted using DAS2.0 software and the pharmacokinetic parameters were calculated. FIGS. 18 and 19 show the dose-time curves by gavage administration and intravenous injection, respectively.

PC12 cells = assay: Protection against hydrogen peroxide-induced oxidative damage to PC12 nerve cells (MTT); format: cell-based; conditions: for protective effect on PC12 nerve cells against hydrogen peroxide (comparison in words): 2.5-50 μM, 250 μM H2O2, FIG. 16
Method: 2. Method: PC12 cells were cultured as follows. PC12 cells were inoculated into the high-glucose DMEM medium containing 10% fetal bovine serum, penicillin 100 U mL^−1, and streptomycin 100 μg mL^−1, and cultured in the cell incubator at 37° C. under 5% CO2. The medium was changed every other day. The cells were routinely trypsinized and passaged. The cells were used for experiments when they reached 70-80% confluence.
4. Oxidative damage modeling: PC12 cells in the logarithmic growth phase were inoculated into a 96-well cell culture plate at a density of 5×10^3 cells/well. H2O2 was added at different concentrations, and cultured for 4 h. MTT was added according to the above MTT assay, and A value of each well was measured. The H2O2 concentration at which the cell viability was reduced by 50% was finally selected as the modelling concentration.
Therefore, 250 μM was selected as the induction concentration of nerve cell oxidative damage.
5. Grouping and drug treatment: The experimental groups was divided into the normal blank control group, the H2O2 model group (250 μM), concentration groups (2.5 μM, 5.0 μM, 10 μM, 25 μM, 50 μM) for phthalides and their derivatives, and the positive control group (butylphthalide). Each group for phthalides and their derivatives as well as the positive control group were added with 250 μM H2O2, respectively. In the experiment, the solutions of phthalides and their derivatives were first added respectively, so that the final concentrations reached the corresponding values. After 4 h, H2O2 was added, and MTT was added after 24 h. The A value was measured to calculate the cell viability.

[2] = test system: acute cerebral ischemic infarction (MCAO model); assay: Cerebral infarction in acute ischemic stroke, suture-occluded MCAO model; format: in vivo, Wistar rat; conditions: for therapeutic effect on cerebral infarction (words): 3 days after modeling
Method: 1. Experimental animals: […] Wistar male rats (230-250 g), provided by Lanzhou Veterinary Research Institute, Chinese Academy of Agricultural Sciences. 2. […] MCAO model (Middle Cerebral Artery Obstruction in rats) was established through suture-occlusion, and the rats were intraperitoneally injected with 10% chloral hydrate at a dosage of 400 mg/kg for anesthetization. The rats were fixed with supine position method to expose the neck. It was shaved and the skin was cleaned for skin incision. Under gentle operations, the main blood vessels such as left common carotid artery, arteria carotis interna, and arteria carotis externa were separated. The arteria carotis externa was selected to be ligated and disconnected, to avoid the bleeding of the common carotid artery. The common carotid artery was temporarily clamped with an arterial clip. A small opening was cut at the end of arteria carotis […], and used for the placement of the suture-occlusion. The round head of the prepared suture-occlusion was held by the ophthalmic tweezer and gently inserted, with a controlled depth of about 1.8-2.0 cm. The incision was sutured conventionally. After 0.5 h of cerebral ischemia, the suture-occlusion was removed to restore the blood supply. At a certain time after administration, the rats were sacrificed. The brain tissue was stained with 0.5% 2,3,5-triphenyltetrazolium chloride […], and the cerebral infarction area was scanned and calculated, wherein the normal tissue was stained in red and the infarcted tissue was stained in white. 3. Animal grouping: The animals were grouped as follows: the model group (acute ischemia and hypoxia pathological model, administrated with an equal dosage of physiological saline containing 8% Tween-80), the sham operation group (not administrated, as the negative control, administrated with an equal dosage of physiological saline containing 8% Tween-80), the prevention group (administrated 3 days in advance), and treatment group (administrated for 3 days after the blood supply was restored from embolism). 4. Method of administration: […] Results: […] A. Negative model control, infarct area: 30.57%; B. […] C.

[3] = test system: β-amyloid-induced neurotoxicity; conditions: through p38 and PI3K/Akt signaling pathways; cited from earlier work
[4] = male, Wistar, in vivo, iv, 40 mg/kg
[5] = male, Wistar, in vivo, po, 90 mg/kg
[6] = Rattus norvegicus, PC-12, read-out: cell viability
[7] = treatment group, dosed for 3 days after modeling, 40 mg/kg, intraperitoneal injection
[8] = po (gavage), 90 mg/kg of Example 7 mixture

## CCCCC1(O)C2=C(C=CCC2)C(=O)N1C1CC1 (racemic) [ligustilide derivative, N-cyclopropyl-3-n-butyl-3-hydroxy-ligusticum lactam]
[1]; [4]
  AUC(0-inf): 12100 ng·h/mL
  AUC(0-t): 6020 ng·h/mL
  CL1: 5445.044 L/h/kg
  CL2: 20518.475 L/h/kg
  K10: 1.456 h⁻¹
  K12: 5.488 h⁻¹
  K21: 1.17 h⁻¹
  R_AUC(t/∞): 49.7%
  V1: 3739.124 L/kg
  V2: 17537.504 L/kg
  t1/2α: 0.088 h
  t1/2β: 3.213 h
[1]; [5]
  AUC(0-inf): 37100 ng·h/mL
  AUC(0-t): 35300 ng·h/mL
  CL1: 2719.904 L/h/kg
  CL2: 1163.858 L/h/kg
  CL3: 65.258 L/h/kg
  Cmax: 8820 ng/mL
  K10: 3.763 h⁻¹
  K12: 1.61 h⁻¹
  K13: 0.09 h⁻¹
  K21: 0.684 h⁻¹
  K31: 0.272 h⁻¹
  Ka: 4.021 h⁻¹
  R_AUC(t/∞): 95.4%
  T1/2ka: 0.172
  Tmax: 1.2 h
  V1: 722.758 L/kg
  V2: 1701.61 L/kg
  V3: 240.115 L/kg
  t1/2α: 0.122 h
  t1/2β: 1.478 h
  t1/2γ: 2.643 h
PC12 cells
  protective effect on PC12 nerve cells against hydrogen peroxide (comparison in words): strongest protective effect
PC12 cells; [6]
  viability at 2.5 µM: 80%
  viability at 10 µM: 95%
[2]; prevention group, pre-dosed for 3 days, modeling, dosed for another 3 days, intraperitoneal injection, model control 30.57%
  infarct area: 22%
[2]; prevention group, survived animals
  anti-embolic effect: relatively weak anti-embolic effects
[2]; treatment group, 40 mg/kg, intraperitoneal injection, 40 mg/kg
  therapeutic effect on cerebral infarction (words): complete recanalization
[2]; treatment group, 40 mg/kg, intraperitoneal injection, listed as N-cyclopropyl-3-n-butyl-3-hydroxy-ligusticum lactam, 40 mg/kg
  therapeutic effect on cerebral infarction (words): effectively prevent the occurrence of cerebral infarction
[2]; [7]
  infarct area, middle portion: 0%
  infarct area, right side, calculated according to the edema removal method: negative value
[2]; treatment group, dosed for 3 days after modeling, 40 mg/kg, intraperitoneal injection, model control 30.57%
  infarct area, left side: 4%

## CCCCC1OC(=O)c2ccccc21 (centres unmarked) [butylphthalide, reference compound]
PC12 cells; drug positive control group, 250 μM H2O2, concentration not given
  cell viability: 68%

## CCC/C=C1\OC(=O)C2=C1CCC=C2 [ligustilide, reference compound]
PC12 cells
  protective effect on PC12 nerve cells against hydrogen peroxide (comparison in words): stronger than that of n-butenylphthalide
[3]
  concentration at which β-amyloid-induced neurotoxicity is inhibited: 1 to 30 µM

## CCCCC1(O)c2ccccc2C(=O)N1C1CC1 (centres unmarked) [n-butenylphthalide derivative, N-cyclopropyl-3-n-butyl-3-hydroxy-phthalide lactam]
[1]; [8]
  CL1: 893.769 L/h/kg
  CL2: 802.825 L/h/kg
  CL3: -50.58 L/h/kg
  K10: 1.689 h⁻¹
  K12: 1.517 h⁻¹
  K13: -0.096 h⁻¹
  K21: 0.543 h⁻¹
  K31: 0.167 h⁻¹
  Ka: 2.425 h⁻¹
  R_AUC(t/∞): 89.9%
  T1/2ka: 0.286
  Tmax: 1.768 h
  V1: 529.323 L/kg
  V2: 1478.868 L/kg
  V3: -302.598 L/kg
  t1/2α: 0.204 h
  t1/2β: 3.029 h
  t1/2γ: 3.513 h
PC12 cells
  protective effect on PC12 nerve cells against hydrogen peroxide (comparison in words): almost the same protective effects
